These results are taken from BindingDB's records for doi:10.1002/cbic.200390029 (University of Queensland Brisbane, 2003).

The experiment deals with T1, Phospholipase A2, membrane associated (Homo sapiens, UniProt P14555).
T1 sequence (P14555 whole entry): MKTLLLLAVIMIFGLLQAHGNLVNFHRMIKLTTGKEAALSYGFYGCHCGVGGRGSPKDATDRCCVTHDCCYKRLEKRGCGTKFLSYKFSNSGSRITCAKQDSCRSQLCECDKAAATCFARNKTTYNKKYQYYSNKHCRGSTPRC
Briefly: In Vitro Colorimetric Enzyme Assay.
Consider `O=C(O)CC[C@@H](Cc1ccc(OCc2ccccc2)cc1)NC(=O)CCCCCc1ccccc1` [hnpsPLA2-IIa Inhibitor, 2a], for which the midpoint of inhibition, the IC50, lay at 662 nM.

With `O=C(O)CC[C@@H](Cc1ccc(OCc2ccccc2)cc1)NC(=O)CCCCCCCc1ccccc1` [hnpsPLA2-IIa Inhibitor, 2c], half-maximal inhibition (IC50) required 2480 nM.

As to `COc1ccccc1CCCCCCC(=O)N[C@@H](CCC(=O)O)Cc1ccc(OCc2ccccc2)cc1` [hnpsPLA2-IIa Inhibitor, 2d], the IC50 (as a rule, the concentration needed to halve the response being measured) is 1820 nM.

For the compound `CC(=O)Nc1ccccc1CCCCCCC(=O)N[C@@H](CCC(=O)O)Cc1ccc(OCc2ccccc2)cc1` [hnpsPLA2-IIa Inhibitor, 2e], the concentration for half-maximal inhibition (IC50) is 4050 nM.

Consider `O=C(O)CC[C@@H](Cc1ccc(OCc2ccccc2)cc1)NC(=O)CCCCCCc1cccnc1` [hnpsPLA2-IIa Inhibitor, 2f], for which the IC50 was 761 nM.

Compound `O=C(O)CC[C@@H](Cc1ccc(OCc2ccccc2)cc1)NC(=O)CCCCCCc1cccc([N+](=O)[O-])c1` [hnpsPLA2-IIa Inhibitor, 2g] showed an IC50 of 536 nM.

In the case of `O=C(O)CC[C@@H](Cc1ccc(Oc2ccccn2)cc1)NC(=O)CCCCCCc1ccccc1` [hnpsPLA2-IIa Inhibitor, 2h], 214 nM corresponded to half-maximal inhibition (IC50).

As for `O=C(O)CC[C@@H](Cc1ccc(Oc2cccnc2)cc1)NC(=O)CCCCCCc1ccccc1` [hnpsPLA2-IIa Inhibitor, 2i], 247 nM corresponded to half-maximal inhibition (IC50).

Compound `O=C(O)CC[C@@H](Cc1ccc(OCC2CCCCC2)cc1)NC(=O)CCCCCCc1ccccc1` [hnpsPLA2-IIa Inhibitor, 2j] showed a 50% inhibitory concentration (IC50) of 67 nM.

Consider `O=C(O)CC[C@@H](Cc1ccc(OCC2CCCC2)cc1)NC(=O)CCCCCCc1ccccc1` [hnpsPLA2-IIa Inhibitor, 2k], for which the IC50 turned out to be 57 nM.

The compound `O=C(O)CC[C@@H](Cc1ccc(OCc2cccc3ccccc23)cc1)NC(=O)CCCCCCc1ccccc1` [hnpsPLA2-IIa Inhibitor, 2l] showed an IC50 of 19 nM.

`O=C(O)CC[C@@H](Cc1ccc(OCc2ccc3ccccc3c2)cc1)NC(=O)CCCCCCc1ccccc1` [hnpsPLA2-IIa Inhibitor, 2m] yielded a half-maximal inhibitory concentration (IC50) of 39 nM.

`O=C(O)CC[C@@H](Cc1ccc(OC/C=C/c2ccccc2)cc1)NC(=O)CCCCCCc1ccccc1` [hnpsPLA2-IIa Inhibitor, 2n] had an IC50 of 116 nM.

For the compound `CC(C)COc1ccc(C[C@H](CCC(=O)O)NC(=O)CCCCCCc2ccccc2)cc1` [hnpsPLA2-IIa Inhibitor, 2o], the IC50 turned out to be 170 nM.

Take `CCCCCCCOc1ccc(C[C@H](CCC(=O)O)NC(=O)CCCCCCc2ccccc2)cc1` [hnpsPLA2-IIa Inhibitor, 2p]: the IC50 stood at 86 nM.

`O=C(O)CC[C@@H](Cc1ccc(O)cc1)NC(=O)CCCCCCc1ccccc1` [hnpsPLA2-IIa Inhibitor, 2q]: inhibition was half-maximal at 2570 nM (IC50).
